This passage reports IC50 results from patent US6005116A, “Isoxazole compounds useful for the prophylaxis or treatment of nervous diseases” (Sankyo Company, Limited, priority 1996, dated 1999).

This test has as its target T1, Type A-monoamine oxidase (Mus musculus, UniProt Q64133).
T1 sequence (Q64133 1-526): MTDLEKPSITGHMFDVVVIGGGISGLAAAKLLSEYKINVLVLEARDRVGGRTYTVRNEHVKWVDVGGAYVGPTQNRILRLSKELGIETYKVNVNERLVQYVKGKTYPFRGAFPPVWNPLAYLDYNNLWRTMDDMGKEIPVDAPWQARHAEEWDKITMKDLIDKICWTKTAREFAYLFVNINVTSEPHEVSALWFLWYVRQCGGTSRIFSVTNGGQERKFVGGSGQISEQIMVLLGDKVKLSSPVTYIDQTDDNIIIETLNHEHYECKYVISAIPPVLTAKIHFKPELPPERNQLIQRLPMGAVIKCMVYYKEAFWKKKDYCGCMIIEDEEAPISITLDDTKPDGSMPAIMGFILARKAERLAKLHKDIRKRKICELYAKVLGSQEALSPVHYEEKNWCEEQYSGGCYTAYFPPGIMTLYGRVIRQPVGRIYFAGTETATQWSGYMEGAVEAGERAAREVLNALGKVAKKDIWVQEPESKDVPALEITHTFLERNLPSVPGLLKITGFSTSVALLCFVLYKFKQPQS
The test can be described thus: Type A-monoamine oxidase inhibitory activity. Type of test: biochemical.

The mark [1] stands for this setting: mouse brain crude mitochondria, substrate 14C-5-HT 100 μM, preincubated at 38° C. for 20 minutes, phosphate buffer pH 7.4, read-out: IC50 (concentration of the compound which decreases the 14C radioactivity of the control by 50%).

pIC50: −log10 of the molar value. Structures can show the parent of a compound that is named as a salt. Where two headings read alike, the source gives them in different places.

Procedure: To 30 μl of a sample of mouse brain crude mitochondria (30 μg protein) were added 210 μl of a phosphate buffer (pH 7.4) and a test compound (dissolved in a mixture of 10% DMSO and water), and the resulting mixture was preincubated at 38° C. for 20 minutes. Subsequently, ^14 C-5-hydroxytriptamine (5-HT, final concentration: 100 μM) was added to the preincubated mixture to effect reaction at 38° C. for 20 minutes.

On to `NCCOc1cc(-c2ccccc2)on1` [Example 1, 3-(2-Aminoethoxy)-5-phenylisoxazole hydrochloride], for which the pIC50 under setting [1] was more than 7.55.
On to `NCCOc1noc(-c2ccccc2)c1Cl` [Example 2, 3-(2-Aminoethoxy)-4-chloro-5-phenylisoxazole hydrochloride], for which, under setting [1], the pIC50 was more than 7.55.
In the case of `NCCOc1cc(-c2ccc(Cl)cc2)on1` [Example 3, 3-(2-Aminoethoxy)-5-(4-chlorophenyl)isoxazole hydrochloride], the pIC50 under setting [1] is more than 7.55.
As for `CC(C)c1c(OCCN)noc1-c1ccccc1` [Example 4, 3-(2-Aminoethoxy)-4-isopropyl-5-phenylisoxazole hydrochloride], the pIC50 under setting [1] was more than 7.55.
Consider `NCCOc1cc(-c2cccs2)on1` [Example 5, 3-(2-Aminoethoxy)-5-(2-thienyl)isoxazole hydrochloride], for which, under setting [1], the pIC50 is more than 7.55.
Turning to `NCCOc1noc(-c2cccs2)c1Cl` [Example 6, 3-(2-Aminoethoxy)-4-chloro-5-(2-thienyl)isoxazole hydrochloride], the pIC50 under setting [1] is more than 7.55.
As to `NCCOc1cc(-c2cccnc2)on1` [Example 7, 3-(2-Aminoethoxy)-5-(3-pyridyl)isoxazole hydrochloride], the pIC50 under setting [1] is more than 7.55.
In the case of `NCCOc1noc(-c2cccnc2)c1Cl` [Example 8, 3-(2-Aminoethoxy)-4-chloro-5-(3-pyridyl)isoxazole hydrochloride], the pIC50 under setting [1] is more than 7.55.
As for `CC(C)c1c(OCCN)noc1-c1ccco1` [Example 54, 3-(2-Aminoethoxy-5-(2-furyl)-4-isopropylisoxazole hydrochloride], the pIC50 under setting [1] was more than 7.55.
Regarding `CC(C)c1c(OCCN)noc1-c1ccc(Cl)cc1Cl` [Example 57, 3-(2-Aminoethoxy)-5-(2,4-dichlorophenyl)-4-isopropylisoxazole hydrochloride], the pIC50 was more than 7.55.
Turning to `CC(C)c1c(OCCN)noc1-c1ccccc1Cl` [Example 58, 3-(2-Aminoethoxy)-5-(2-chlorophenyl)-4-isopropylisoxazole hydrochloride], the pIC50 under setting [1] was more than 7.55.
Turning to `CC(C)c1c(OCCN)noc1-c1ccc(Cl)cc1` [Example 59, 3-(2-Aminoethoxy)-5-(4-chlorophenyl)-4-isopropylisoxazole hydrochloride], under setting [1], the pIC50 was more than 7.55.
Turning to `C=CCc1c(OCCN)noc1-c1ccccc1` [Example 60, 4-Allyl-3-(2-aminoethoxy)-5-phenylisoxazole hydrochloride], the pIC50 under setting [1] is more than 7.55.
As for `CC(C)Cc1c(OCCN)noc1-c1ccccc1` [Example 62, 3-(2-Aminoethoxy)-4-isobutyl-5-phenylisoxazole hydrochloride], the pIC50 under setting [1] is more than 7.55.
On the same count and under the same terms, then `CC(C)c1c(OCCN)noc1-c1cccs1` [Example 67, 3-(2-Aminoethoxy)-4-isopropyl-5-(2-thienyl)isoxazole hydrochloride], with more than 7.55.
